Assay results from patent US12030940B2, “Immunotherapeutic tumor treatment method” (Nektar Therapeutics, priority 2017, dated 2024).

Test system: B16F10 mouse melanoma tumors
Experiment: Immune cells in tumor microenvironment by flow cytometry, subcutaneous B16F10 melanoma mice
Assay type: in vivo

## aldesleukin
5 and 7 days after treatment initiation
  activated natural killer (NK) cells: increased
By day 7, single dose RSLAIL-2 or 5 doses aldesleukin
  ratio of CD8/Treg in the tumor: 18
Relative to vehicle
  total and memory CD8 T cells as percentage of tumor-infiltrating lymphocytes: transient
Relative to vehicle, days 5, 7, 10
  percentage of Tregs (FoxP3+ subset of CD4) in tumor: modest
